# Assay results reported in patent US12403129B2, “Isotope-enriched 3-amino-1-propanesulfonic acid derivatives for the treatment of cerebrovascular disease” (RISEN (SUZHOU) PHARMA TECH CO., LTD., priority 2021, dated 2025).
# Legend:
# [1] = test system: mouse model of dementia caused by cerebral ischemia-reperfusion; assay: Cognitive tests in mouse model of dementia caused by cerebral ischemia-reperfusion; assay type: in vivo, C57BL/6J mice
# Method: (§1) 140 healthy C57BL/6J mice, including 70 males and 70 females, were used. 1% Pentobarbital Sodium (50 mg/kg) was injected intraperitoneally to anesthetize the mice. The back position was fixed, the neck hair was removed, and the common carotid arteries were cut along the middle of the neck after iodophor disinfection. The common carotid arteries were separated, clamped with a noninvasive artery clamp for 15 minutes, released for 10 minutes, and then clamped for 10 minutes. Penicillin powder was then applied to suture muscles and skin. The sham operation group was not clamped, and other operations were the same as for the model group. […] Mice were divided into 6 groups: sham operation group, model group, positive control group (donepezil) and test compound group (different doses). Test compounds were administered by gavage to each group on the next day of modeling. The compound group was given compounds once a day in the morning and evening, and the volume of each gavage was 10 ml/kg. Half of the animals in the sham operation group and the model group were given the same amount of distilled water, and half of the animals were given the same amount of 1% sodium carboxymethylcellulose solution. From the 16th day of administration, Y maze, new object discrimination (days 17-20), spontaneous activity (days 20), Morris water maze (days 23-28) and dark avoidance experiment (days 29-30) were carried out successively. During the behavioral experiment, the administration of compound was continued until the animals were sacrificed.
# The main pathological index included: investigation of the improvement of learning and memory impairment by the compound in the pathogenic model of cerebral ischemia-reperfusion using behavioral experimental methods such as Y maze, new object discrimination, spontaneous activity, Morris water maze and passive avoidance experiment (dark avoidance); investigation of the ultrastructure of nerve cells (including nucleus, mitochondria and synapse) by HE staining and immunofluorescence; detection of expression of synaptic associated proteins SYP and PSD95 by Western blotting; and detection of expression of apoptosis-related proteins Bcl-2 and Bax by Western blotting. The experimental results for compound 4 on the expression of SYP and PSD95 in the hippocampus of dementia model mice induced by cerebral ischemia-reperfusion are shown in FIG. 5 and FIG. 6 and in Table V below. Experimental results were analyzed statistically using IBM SPSS 21.0 software. The differences between groups were compared by one-way ANOVA or two-way ANOVA (water maze directional navigation) and LSD test. Experimental data were expressed by “mean±SEM”, P<0.05.
# [2] = test system: neuronal cells in hippocampal CA1 area and CA3 area and cerebral cortex; assay: Neuronal cell morphology in ischemia-reperfusion dementia mice; assay type: in vivo, C57BL/6J mice; conditions: compared with the model group
# Method: as §1, with “From the 16th day of administration, Y maze, new object discrimination (days 17-20), spontaneous activity (days 20), Morris water maze (days 23-28) and dark avoidance experiment (days 29-30) were carried out successively. During the behavioral experiment, the administration of compound was continued until the animals were sacrificed.” left out
# (§2) The main pathological index included: investigation of the improvement of learning and memory impairment by the compound in the pathogenic model of cerebral ischemia-reperfusion using behavioral experimental methods such as Y maze, new object discrimination, spontaneous activity, Morris water maze and passive avoidance experiment (dark avoidance); investigation of the ultrastructure of nerve cells (including nucleus, mitochondria and synapse) by HE staining and immunofluorescence; detection of expression of synaptic associated proteins SYP and PSD95 by Western blotting; and detection of expression of apoptosis-related proteins Bcl-2 and Bax by Western blotting. […] Experimental results were analyzed statistically using IBM SPSS 21.0 software. […]
# MBP = MBP expression in ischemia-reperfusion dementia mice; assay type: in vivo, C57BL/6J mice; conditions: compared with the model group
# Method: (§3) 140 healthy C57BL/6J mice, including 70 males and 70 females, were used. 1% Pentobarbital Sodium (50 mg/kg) was injected intraperitoneally to anesthetize the mice. The back position was fixed, the neck hair was removed, and the common carotid arteries were cut along the middle of the neck after iodophor disinfection. The common carotid arteries were separated, clamped with a noninvasive artery clamp for 15 minutes, released for 10 minutes, and then clamped for 10 minutes. Penicillin powder was then applied to suture muscles and skin. The sham operation group was not clamped, and other operations were the same as for the model group. […]
# as §2
# SYP = SYP expression in hippocampus by Western blotting, ischemia-reperfusion dementia mice; assay type: in vivo, C57BL/6J mice
# Method: Compound 4, 85 mg/kg, bid; D. Compound 4, 170 mg/kg, bid; E. Compound 4, 340 mg/kg, bid; F. Donepezil, 1.3 mg/kg. Compared with sham operation group, ## P<0.01; Compared with the model group, * P<0.05.
# as §1, with “From the 16th day of administration, Y maze, new object discrimination (days 17-20), spontaneous activity (days 20), Morris water maze (days 23-28) and dark avoidance experiment (days 29-30) were carried out successively. During the behavioral experiment, the administration of compound was continued until the animals were sacrificed.” left out
# PSD95 = PSD95 expression in hippocampus by Western blotting, ischemia-reperfusion dementia mice; assay type: in vivo, C57BL/6J mice
# Method: Compound 4, 85 mg/kg, bid; D. Compound 4, 170 mg/kg, bid; E. Compound 4, 340 mg/kg, bid; F. Donepezil, 1.3 mg/kg. Compared with sham operation group: ### P<0.001; Compared with the model group: ** P<0.01, *** P<0.001.
# as §1, with “Half of the animals in the sham operation group and the model group were given the same amount of distilled water, and half of the animals were given the same amount of 1% sodium carboxymethylcellulose solution. From the 16th day of administration, Y maze, new object discrimination (days 17-20), spontaneous activity (days 20), Morris water maze (days 23-28) and dark avoidance experiment (days 29-30) were carried out successively. During the behavioral experiment, the administration of compound was continued until the animals were sacrificed.” left out
# Bcl-2 = Bcl-2 expression by Western blotting, ischemia-reperfusion dementia mice; assay type: in vivo, C57BL/6J mice
# Method: as §3, §2
# Bax = Bax expression by Western blotting, ischemia-reperfusion dementia mice; assay type: in vivo, C57BL/6J mice
# Method: as §3, §2
# [3] = test system: rat model of dementia caused by multiple cerebral infarction; assay: Cognitive tests in rat model of dementia caused by multiple cerebral infarction; assay type: in vivo, SD rats; conditions: Test group vs model group, n = 12-14, dose not given
# Method: 135 SPF grade SD rats (75 females, 60 males, weighing 200-220 g) were used. Anesthesia was performed by intraperitoneal injection of 3.5% chloral hydrate (350 mg/kg). After dorsal fixation, neck hair removal and iodophor disinfection, animals were cut along the middle of the neck to separate the right common carotid artery, external carotid artery and internal carotid artery. The common carotid artery was temporarily clamped by the artery clamp, the left external carotid artery was retrogradely punctured to the beginning of the left internal carotid artery with a pediatric scalp needle, and then 0.4 ml of embolic normal saline suspension was slowly injected with a syringe (the preparation of embolic normal saline suspension was as follows: blood was collected from the abdominal aorta of the same rat, dried naturally in a 37° C. incubator, and prepared for 80-200 minutes to form a blood clot; during application, 0.3 ml normal saline was added to every 10 mg blood clot), and the common carotid artery clamp was opened at the same time, then the external carotid artery was ligated and the skin was sutured. In the sham operation group, 0.4 ml normal saline was used instead of embolic suspension. The experimental animals were randomly divided into 6 groups according to weight balance, as follows: sham operation group, model group, positive control group (donepezil) and test compound group (different doses). There were 12-14 rats in each group. The animals in each group began to give drugs by gavage after modeling until the end of the experiment. The animals underwent Y maze experiment on the 16th day of administration, new object discrimination experiment on the 17th-20th day, Morris water maze experiment on the 22nd-27th day, and dark avoidance experiment on the 28th-29th day. On the 30th day, animals were sacrificed and tissues harvested for analysis.
# The main pathological indexes included investigation of the improvement of learning and memory impairment in the dementia model animal by test compound using behavioral experimental methods such as Y maze, new object discrimination, Morris water maze and passive avoidance test (dark avoidance); investigation of the protective effect of test compound on mitochondria by detecting the content of ATP in hippocampus and cortex of rats; and investigation of levels of oxidative stress in the rat brain by measuring activity of superoxide dismutase (SOD, which is an oxygen free-radical scavenger), glutathione peroxidase (GSH-Px, which scavenges lipid peroxides induced by reactive oxygen species and —OH), nitric oxide synthase (NOS), malondialdehyde (MDA), and nitric oxide (NO). The ultrastructure of nerve cells (including nucleus, mitochondria and synapse) was investigated using immunofluorescence and transmission electron microscope. Expression of synaptic associated proteins SYP and PSD95 was detected by Western blotting. Experimental results for compound 4 on the concentration of nitric oxide (NO), the activity of nitric oxide synthase (NOS) and the ultrastructure of nerve cells in the rat model of dementia caused by multiple cerebral infarction are shown in FIGS. 7-11. Experimental results were statistically analyzed using IBM SPSS 21.0 software. The differences between groups were compared by one-way ANOVA or two-way ANOVA (water maze directional navigation) and LSD test.
# [4] = Test group vs model group, n = 15-17, dose not stated
# [5] = mice, gavage, morning and evening
smiles,measurement,setting,value
"[2H]C([2H])(CCS(=O)(=O)O)NC(=O)[C@@H](N)C(C)C [compound 4, 3-((L-valyl)amino)-3,3-dideuterium-1-propanesulfonic Acid]","Discrimination coefficient for new objects, p compared with model group",[1]; [4],p < 0.05
same,"Percentage of swimming distance, p compared with model group",[1]; [4],p < 0.05
same,"Priority index for new objects, p compared with model group",[1]; [4],p < 0.05
same,"Spontaneous alternating response rate, p compared with model group",[1]; [4],p < 0.05
same,"Swimming time in target quadrant, p compared with model group",[1]; [4],p < 0.05
same,"The incubation period for entering the darkroom, p compared with model group",[1]; [4],p < 0.05
same,"Times of crossing the platform, p compared with model group",[1]; [4],p < 0.01
same,discrimination coefficient to new objects in the new object discrimination experiment,[1]; [5],improved
same,incubation period of entering the dark room in the dark avoidance experiment,[1]; [5],prolonged
same,number of times of crossing the platform,[1]; [5],increased
same,percentage of swimming distance in the target quadrant,[1]; [5],improved
same,priority index to new objects in the new object discrimination experiment,[1]; [5],improved
same,spontaneous alternating response rate in the Y maze experiment,[1]; [5],significantly improved
same,swimming time in the target quadrant in the water maze test,[1]; [5],prolonged
same,"working memory, image recognition memory, spatial memory and long-term memory impairment",[1]; vascular dementia mice caused by cerebral ischemia-reperfusion,can significantly improve
same,arrangement and morphology of neuronal cells in hippocampal CA1 area and CA3 area,[2],significantly improved
same,deep staining pyknosis of nuclei in cerebral cortex,[2],significantly reduced
same,deep staining pyknosis of nuclei,[2]; hippocampal CA1 and CA3 area,significantly reduced
same,expression of MBP in hippocampal CA1 area and cerebral cortex,MBP,increased
same,"SYP expression, p compared with model group",SYP; [4],p < 0.05
same,expression of SYP,SYP; compared with the model group,increased
same,"PSD95 expression, p compared with model group",PSD95; [4],p < 0.001
same,expression of PSD95,PSD95; compared with the model group,increased
same,"Bcl-2 expression, p compared with model group",Bcl-2; [4],p < 0.01
same,expression of Bcl-2,Bcl-2; compared with the model group,increased
same,"Bax expression, p compared with model group",Bax; [4],p < 0.01
same,expression of Bax,Bax; compared with the model group,reduced
same,"Percentage of swimming distance, p compared with model group",[3],p < 0.001
same,"Spontaneous alternating response rate, p compared with model group",[3],p < 0.001
